# Assay results from US8106055B2, “Substituted amide compounds” (Gruenenthal GmbH, priority 2007, dated 2012).
# Molecular target: T1, human μ opiate receptor (Homo sapiens, UniProt P35372)
# T1 construct: purchased PerkinElmer Life Sciences, Zaventem, Belgium RB-HOM; host or cells: CHO-K1 cells (membrane preparation)
# Assay: Affinity for the human μ opiate receptor ([3H]-naloxone displacement, CHO-K1 receptor membrane preparation, SPA)
# Type: binding
# Details: test concentration of 1 μM; read-out: μ (binding on the μ opioid receptor, % inhibition)
# Outline: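 Readout is percent displacement of [3H]-naloxone (1 nmol/l) from human μ receptor in CHO-K1 membranes, measured at 1 μmol/l compound. Incubation runs 90 minutes at room temperature with WGA-SPA beads in Tris-HCl/BSA buffer; non-specific binding is defined with 100 μmol/l naloxone.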
# T1 sequence (P35372 whole entry): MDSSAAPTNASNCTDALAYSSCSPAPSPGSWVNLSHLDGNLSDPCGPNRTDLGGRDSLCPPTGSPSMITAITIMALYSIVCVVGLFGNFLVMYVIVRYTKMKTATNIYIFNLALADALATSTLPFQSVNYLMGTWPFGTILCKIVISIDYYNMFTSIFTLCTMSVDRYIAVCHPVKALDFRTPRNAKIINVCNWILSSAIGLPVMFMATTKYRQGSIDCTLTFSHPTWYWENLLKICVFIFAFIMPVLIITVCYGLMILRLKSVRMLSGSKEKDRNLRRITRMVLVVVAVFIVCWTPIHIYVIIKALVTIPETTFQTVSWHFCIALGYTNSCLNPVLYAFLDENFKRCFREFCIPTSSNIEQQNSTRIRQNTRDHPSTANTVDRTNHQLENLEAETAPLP
row,Structure (SMILES),inhibition at 1 µM [%]
1,"CN(C)C(c1cccc(F)c1)C1CCC(CNC(=O)COCC2CCCCN2S(=O)(=O)c2ccc(Cl)c(Cl)c2)CC1 (stereo not drawn) [Example 87, 2-((1-(3,4-dichlorophenylsulfonyl)piperidin-2-yl)methoxy)-N-((4-((dimethylamino)(3-fluorophenyl)methyl)cyclohexyl)methyl)acetamide]",93
2,"CN(C)C(c1cccs1)C1CCC(CCNC(=O)COCCN(C)S(=O)(=O)c2ccc(OC(F)(F)F)cc2)CC1 (stereo not drawn) [Example 65, N-(2-(4-((dimethylamino)(thiophen-2-yl)methyl)cyclohexyl)ethyl)-2-(2-(N-methyl-4-(trifluoromethoxy)phenylsulfonamido)ethoxy)acetamide]",96
3,"CN(C)C(c1cccs1)C1CCC(CNC(=O)COCCN(C)S(=O)(=O)c2cccc(C(F)(F)F)c2)CC1 (stereo not drawn) [Example 92, N-((4-((dimethylamino)(thiophen-2-yl)methyl)cyclohexyl)methyl)-2-(2-(N-methyl-3-(trifluoromethyl)phenylsulfonamido)ethoxy)acetamide]",94
4,"COc1ccc(S(=O)(=O)N2CCCCC2CCOCC(=O)NCCC2CCC(C(c3cccs3)N(C)C)CC2)cc1 (stereo not drawn) [Example 46, N-(2-(4-((dimethylamino)(thiophen-2-yl)methyl)cyclohexyl)ethyl)-2-(2-(1-(4-methoxyphenylsulfonyl)piperidin-2-yl)ethoxy)acetamide]",96
5,"COc1cc(C)c(S(=O)(=O)N2CCC(OCC(=O)NCCC3CCC(C(c4cccs4)N(C)C)CC3)C2)c(C)c1C (stereo not drawn) [Example 74, N-(2-(4-((dimethylamino)(thiophen-2-yl)methyl)cyclohexyl)ethyl)-2-(1-(4-methoxy-2,3,6-trimethylphenylsulfonyl)pyrrolidin-3-yloxy)acetamide]",90
6,"CN(C)C(c1ccccc1)C1CCC(CNC(=O)COC2CCCCC2N(C)S(=O)(=O)c2ccc(Cl)c(Cl)c2)CC1 (stereo not drawn) [Example 78, 2-(2-(3,4-dichloro-N-methylphenylsulfonamido)cyclohexyloxy)-N-((4-((dimethylamino)(phenyl)methyl)cyclohexyl)methyl)acetamide]",95
7,"CN(C)C(c1ccccc1)C1CCC(NC(=O)COC2CCCCC2N(C)S(=O)(=O)c2ccc(Cl)c(Cl)c2)CC1 (stereo not drawn) [Example 39, 2-(2-(3,4-dichloro-N-methylphenylsulfonamido)cyclohexyloxy)-N-(4-((dimethylamino)(phenyl)methyl)cyclohexyl)acetamide]",96
8,"CN(C)C(c1cccs1)C1CCC(CNC(=O)COCCN(C)S(=O)(=O)c2ccc(Cl)cc2)CC1 (stereo not drawn) [Example 55, 2-(2-(4-chloro-N-methylphenylsulfonamido)ethoxy)-N-((4-((dimethylamino)(thiophen-2-yl)methyl)cyclohexyl)methyl)acetamide]",95
9,"Cc1ccc(S(=O)(=O)N(C)CCOCC(=O)NCC2CCC(C(c3cccs3)N(C)C)CC2)cc1 (stereo not drawn) [Example 4, N-((4-((dimethylamino)(thiophen-2-yl)methyl)cyclohexyl)methyl)-2-(2-(N,4-dimethylphenylsulfonamido)ethoxy)acetamide]",99
